Laboratory results taken from US20230293539A1, “MLL1-WDR5 PROTEIN-PROTEIN INTERACTION INHIBITOR COMPOUNDS AND USES THEREOF” (HUYABIO International, LLC, priority 2022, published 2023).
Where two headings read alike, the source gives them in different places.

Legend:
[1] = Metabolite ID in Liver S9; type: in vitro ADME; settings: HBI-2375 and metabolites in Rat liver S9
MV 411 cells = experiment: Cell Viability Assay (CellTiter-Glo); type: cell-based; settings: Homo sapiens, MV4-11, 72 hours, read-out: IC50 (anti-proliferative activity against leukemia cells)
Experimental: Cell lines and maintenance: All cell lines (MV 411) used for in vitro and in vivo studies were supplied as part of Wuxi AppTech cell bank. Cell lines were maintained in a medium supplemented with 10% heat inactivated fetal bovine serum at 37° C., in an atmosphere of 5% CO2, in air. The tumor cells were routinely subcultured twice weekly. The cells growing in an exponential growth phase were used for the in vitro cell potency and in vivo efficacy studies.
EXAMPLE 1: Cell Viability Assay: For cell cytotoxicity assays, 2000 cells/well were plated in 384-well plates. Twenty four hours after plating, cells were treated with inhibitors at the indicated compound concentrations. On Day 3 (72 hours), cells were lysed with CellTiter-Glo® Luminescent Cell Viability Assay reagent (Promega) and luminescence was read using the EnVision Multi-plate reader. To calculate IC50, a dose-response curve is generated using a nonlinear regression model with a sigmoidal dose response. The formula of surviving rate is shown below. IC50 values were automatically generated by GraphPad Prism 8.0. See FIG. 1A and FIG. 1B and Tables 3 and 4.

[2] = PK profile of HBI-2375 in plasma, brain and CSF in SD rats; type: in vivo; settings: for AUC(0-t) / Cmax / MRT last / Tmax / Kp: rat; for Kp: po, 40 mg/kg, read-out: AUClast Ratio Tissue/Plasma
Experimental: EXAMPLE 3: PK profile of HBI-2375 (compound of Formula (IIIb) (HYBI-084) in plasma, brain, and cerebrospinal fluid (CSF) in SD rats: This study was conducted in accordance with the Study Protocol and Pharmaron (Ningbo) TSP's Standard Operating Procedures (SOPs) following all regulatory protocols. This study was conducted under non-GLP environment.
The maximal concentrations of HBI-2375 in CSF for males and females were at 1 hr post-dose. The maximal concentrations of HBI-2375 in brain were at 15 min post-dose for males and at 1 hr post-dose for females. The mean values of AUClast for HBI-2375 from high to low were: brain>plasma>CSF for males, and plasma>brain>CSF for females.
Following a single oral gavage administration of HBI-2375 at 40 mg/kg in SD rats, concentrations of HBI-2375 in plasma, brain, and CSF were determined by LC-MS/MS methods. […] The maximal concentrations of HBI-2375 in CSF for males and females were at 1 hr post-dose. The maximal concentrations of HBI-2375 in brain were at 15 min post-dose for males and at 1 hr post-dose for females.

SHP2 E76K = SHP2 E76K (Homo sapiens, UniProt Q06124, E76K); experiment: Selectivity panel (Table 3); type: biochemical
SHP2 E76K, sequence (Q06124 whole entry E76K): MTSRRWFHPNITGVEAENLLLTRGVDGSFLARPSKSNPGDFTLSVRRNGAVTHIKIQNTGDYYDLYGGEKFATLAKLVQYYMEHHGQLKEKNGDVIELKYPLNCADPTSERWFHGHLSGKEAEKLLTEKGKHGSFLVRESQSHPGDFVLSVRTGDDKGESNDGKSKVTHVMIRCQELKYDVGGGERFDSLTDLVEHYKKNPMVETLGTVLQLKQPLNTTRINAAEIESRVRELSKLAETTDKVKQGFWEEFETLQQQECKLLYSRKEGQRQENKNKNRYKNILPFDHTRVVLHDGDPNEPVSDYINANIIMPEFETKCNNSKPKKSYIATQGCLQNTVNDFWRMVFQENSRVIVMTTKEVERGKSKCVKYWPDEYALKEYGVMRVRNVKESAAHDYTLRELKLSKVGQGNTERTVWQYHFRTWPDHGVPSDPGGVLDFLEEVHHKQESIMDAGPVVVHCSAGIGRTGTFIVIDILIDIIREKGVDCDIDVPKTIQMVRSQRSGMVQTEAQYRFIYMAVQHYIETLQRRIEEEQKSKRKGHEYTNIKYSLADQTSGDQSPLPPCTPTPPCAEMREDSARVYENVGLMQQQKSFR

in vitro [3] = settings: dog, plasma
Metabolite ID in plasma [4] = type: in vitro ADME; settings: HBI-2375 and metabolites in Human plasma
LSD1 = LSD1 (Homo sapiens, UniProt O60341); experiment: Selectivity panel (Table 3); type: biochemical
in vitro [5] = settings: mouse, plasma
WDR5 = WDR5 (Homo sapiens, UniProt P61964); experiment: Selectivity panel (Table 3); type: binding
HDAC1 = HDAC1 (Homo sapiens, UniProt Q13547); experiment: Selectivity panel (Table 3); type: biochemical
HDAC1, sequence (Q13547 whole entry, species assumed): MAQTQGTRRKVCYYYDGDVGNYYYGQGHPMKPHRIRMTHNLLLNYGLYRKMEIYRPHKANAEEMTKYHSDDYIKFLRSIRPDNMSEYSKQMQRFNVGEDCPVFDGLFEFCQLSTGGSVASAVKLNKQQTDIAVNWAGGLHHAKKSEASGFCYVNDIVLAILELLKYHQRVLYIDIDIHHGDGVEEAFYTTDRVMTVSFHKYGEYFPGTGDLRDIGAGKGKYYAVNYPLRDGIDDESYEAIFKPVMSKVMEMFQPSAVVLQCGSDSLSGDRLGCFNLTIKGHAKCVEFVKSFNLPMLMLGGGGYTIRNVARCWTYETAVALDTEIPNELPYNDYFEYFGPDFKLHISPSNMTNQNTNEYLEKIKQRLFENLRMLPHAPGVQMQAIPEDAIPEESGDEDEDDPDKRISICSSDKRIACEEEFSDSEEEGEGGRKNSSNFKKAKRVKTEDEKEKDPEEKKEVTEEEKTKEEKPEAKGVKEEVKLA

TCPTP = TCPTP (Homo sapiens, UniProt P17706); experiment: Selectivity panel (Table 3); type: biochemical
TCPTP, sequence (P17706 whole entry, species assumed): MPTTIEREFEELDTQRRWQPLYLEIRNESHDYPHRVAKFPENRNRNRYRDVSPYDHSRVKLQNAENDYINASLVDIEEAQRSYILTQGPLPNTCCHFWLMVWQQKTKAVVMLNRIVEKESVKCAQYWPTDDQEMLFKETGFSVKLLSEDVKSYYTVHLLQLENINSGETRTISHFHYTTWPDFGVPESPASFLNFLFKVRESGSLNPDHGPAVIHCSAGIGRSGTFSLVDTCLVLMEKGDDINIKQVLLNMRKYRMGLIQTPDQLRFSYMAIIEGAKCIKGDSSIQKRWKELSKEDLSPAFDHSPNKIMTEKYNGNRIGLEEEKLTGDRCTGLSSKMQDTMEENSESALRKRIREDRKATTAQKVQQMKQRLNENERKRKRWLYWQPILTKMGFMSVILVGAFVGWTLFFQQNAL

WIP 1 = WIP 1 (Homo sapiens, UniProt O15297); experiment: Selectivity panel (Table 3); type: biochemical
WIP 1, sequence (O15297 whole entry, species assumed): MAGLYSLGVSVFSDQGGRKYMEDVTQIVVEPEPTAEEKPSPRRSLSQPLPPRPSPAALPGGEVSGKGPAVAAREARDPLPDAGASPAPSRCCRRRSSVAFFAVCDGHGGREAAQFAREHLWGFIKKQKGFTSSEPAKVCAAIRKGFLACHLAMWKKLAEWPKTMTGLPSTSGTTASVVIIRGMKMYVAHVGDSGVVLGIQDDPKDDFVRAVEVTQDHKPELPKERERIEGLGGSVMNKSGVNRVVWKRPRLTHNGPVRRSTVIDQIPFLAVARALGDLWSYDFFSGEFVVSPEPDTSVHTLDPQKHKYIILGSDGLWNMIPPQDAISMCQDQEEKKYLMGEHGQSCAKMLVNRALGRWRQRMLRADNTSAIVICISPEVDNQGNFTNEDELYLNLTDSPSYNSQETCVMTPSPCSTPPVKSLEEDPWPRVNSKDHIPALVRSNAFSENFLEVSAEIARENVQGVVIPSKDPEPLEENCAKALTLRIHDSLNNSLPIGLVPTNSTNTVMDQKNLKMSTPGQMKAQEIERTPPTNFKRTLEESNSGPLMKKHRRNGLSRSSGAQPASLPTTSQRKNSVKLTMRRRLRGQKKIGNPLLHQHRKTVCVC

in vitro [6] = settings: human, plasma
POLQ ATPase = POLQ ATPase (Homo sapiens, UniProt O75417); experiment: Selectivity panel (Table 3); type: biochemical
Metabolite ID in plasma [7] = type: in vitro ADME; settings: HBI-2375 and metabolites in Mouse plasma
PRMT5 = PRMT5 (Homo sapiens, UniProt O14744); experiment: Selectivity panel (Table 3); type: biochemical
PRMT5, sequence (O14744 whole entry, species assumed): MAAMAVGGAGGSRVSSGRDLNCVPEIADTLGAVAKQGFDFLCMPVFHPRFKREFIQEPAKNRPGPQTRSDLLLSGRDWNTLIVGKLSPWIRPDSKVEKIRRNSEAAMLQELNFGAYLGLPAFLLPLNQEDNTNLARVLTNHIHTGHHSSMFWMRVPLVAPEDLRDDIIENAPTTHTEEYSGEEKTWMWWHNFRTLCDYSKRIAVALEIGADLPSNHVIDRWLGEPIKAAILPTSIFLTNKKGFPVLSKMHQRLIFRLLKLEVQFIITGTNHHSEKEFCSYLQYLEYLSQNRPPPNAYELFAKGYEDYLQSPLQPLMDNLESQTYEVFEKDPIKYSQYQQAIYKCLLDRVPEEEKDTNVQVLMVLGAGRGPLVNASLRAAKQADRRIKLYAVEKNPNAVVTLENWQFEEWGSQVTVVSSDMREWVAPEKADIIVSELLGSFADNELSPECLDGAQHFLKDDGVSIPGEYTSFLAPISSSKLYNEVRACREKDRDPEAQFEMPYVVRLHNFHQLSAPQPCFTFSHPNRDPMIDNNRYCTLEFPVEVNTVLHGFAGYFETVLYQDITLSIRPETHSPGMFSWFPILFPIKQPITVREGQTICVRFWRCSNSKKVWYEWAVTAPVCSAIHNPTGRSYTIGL
PRMT5, sequence (Q9BQA1 whole entry partner, species assumed): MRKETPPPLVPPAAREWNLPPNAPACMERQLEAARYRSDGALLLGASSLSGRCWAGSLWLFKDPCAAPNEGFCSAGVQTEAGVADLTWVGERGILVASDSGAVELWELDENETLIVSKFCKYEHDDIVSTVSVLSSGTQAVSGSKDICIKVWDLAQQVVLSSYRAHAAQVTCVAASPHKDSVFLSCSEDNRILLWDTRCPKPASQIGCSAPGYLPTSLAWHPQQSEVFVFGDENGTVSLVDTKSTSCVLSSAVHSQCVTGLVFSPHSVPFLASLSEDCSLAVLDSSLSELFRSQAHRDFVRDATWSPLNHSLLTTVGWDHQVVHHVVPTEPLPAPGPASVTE

in vitro [8] = settings: rat, plasma
Metabolite ID in plasma [9] = type: in vitro ADME; settings: HBI-2375 and metabolites in Monkey plasma
[10] = Sprague-Dawley, SD rats, single PO 40 mg/kg, CSF, female
[11] = Sprague-Dawley, SD rats, single PO 40 mg/kg, CSF, male
[12] = Sprague-Dawley, SD rats, single PO 40 mg/kg, brain, female
[13] = Sprague-Dawley, SD rats, single PO 40 mg/kg, brain, male
[14] = Sprague-Dawley, SD rats, single PO 40 mg/kg, plasma, female
[15] = Sprague-Dawley, SD rats, single PO 40 mg/kg, plasma, male
[16] = both sexes, SD rats, single PO 40 mg/kg, brain, mean of male and female
[17] = both sexes, SD rats, single PO 40 mg/kg, plasma, mean of male and female

SMILES: Cc1c(F)c(N)cc(C(=O)Nc2cc(-n3cc(C(=O)N4CCN(C)CC4)nn3)c(F)cc2N2C[C@@H](C)N(C)[C@@H](C)C2)c1Cl [HYBI-084, 5-amino-2-chloro-4-fluoro-N-(4-fluoro-5-(4-(4-methylpiperazine-1-carbonyl)-1H-1,2,3-triazol-1-yl)-2-((3S,5R)-3,4,5-trimethylpiperazin-1-yl)phenyl)-3-methylbenzamide]
- Relative Abundance (UV Peak Area % Total) [1]: 71.86%
- IC50 (MV 411 cells): 3170 nM
- AUClast Ratio Female/Male ([2]; SD rats, 40 mg/kg PO, CSF): 6.66
- C24hr/Cmax Ratio (%) ([2]; SD rats, 40 mg/kg PO, CSF, female): 11.6%
- AUClast Ratio Tissue/Plasma ([2]; SD rats, 40 mg/kg PO, CSF/plasma, male, listed as HBI-2375, 40 mg/kg): 0.0111
- AUClast Ratio Female/Male ([2]; SD rats, 40 mg/kg PO, brain): 1.54
- C24hr/Cmax Ratio (%) ([2]; SD rats, 40 mg/kg PO, brain, female): 3.24%
- C24hr/Cmax Ratio (%) ([2]; SD rats, 40 mg/kg PO, brain, male): 4.18%
- AUClast from high to low ([2]; SD rats, 40 mg/kg PO, females): plasma>brain>CSF
- AUClast from high to low ([2]; SD rats, 40 mg/kg PO, males): brain>plasma>CSF
- AUClast Ratio Female/Male ([2]; SD rats, 40 mg/kg PO, plasma): 2.18
- C24hr/Cmax Ratio (%) ([2]; SD rats, 40 mg/kg PO, plasma, female): 1.17%
- C24hr/Cmax Ratio (%) ([2]; SD rats, 40 mg/kg PO, plasma, male): 0.697%
- distribution ([2]; SD rats, single PO 40 mg/kg): distributed to CSF and brain
- duration of exposure in CSF and brain ([2]; SD rats, single PO 40 mg/kg): 24 h
- in-life observations ([2]; SD rats, single PO 40 mg/kg): no abnormalities were observed
- AUClast ([2]; SD rats, single PO 40 mg/kg, brain, female): 3394 ng·h/g
- AUClast ([2]; SD rats, single PO 40 mg/kg, brain, male): 2199 ng·h/g
- time of maximal concentration ([2]; SD rats, single PO 40 mg/kg, brain, males): 15 min
- AUClast ([2]; SD rats, single PO 40 mg/kg, brain, mean of male and female): 2796 ng·h/g
- concentration at 24 h ([2]; SD, brain, Single PO Rat 40 mg/kg, read-out: Mean Brain Concentration, Cmin = 24 h): 22.1 ng/g
- AUC(0-t) [2, 10]: 124 ng·h/mL
- Cmax [2, 10]: 24 ng/mL
- MRT last [2, 10]: 8.41 h
- Tmax ([2]; Sprague-Dawley, SD rats, single PO 40 mg/kg, CSF, female, read-out: Tmax): 1 h
- AUC(0-t) [2, 11]: 18.6 ng·h/mL
- Cmax [2, 11]: 7.48 ng/mL
- MRT last [2, 11]: 2 h
- Tmax ([2]; Sprague-Dawley, SD rats, single PO 40 mg/kg, CSF, male, read-out: Tmax): 1 h
- Cmax [2, 12]: 833 ng/g
- MRT last [2, 12]: 5.81 h
- Tmax ([2]; Sprague-Dawley, SD rats, single PO 40 mg/kg, brain, female, read-out: Tmax): 1 h
- Cmax [2, 13]: 413 ng/g
- MRT last [2, 13]: 7 h
- AUC(0-t) [2, 14]: 3660 ng·h/mL
- Cmax [2, 14]: 934 ng/mL
- MRT last [2, 14]: 5.11 h
- AUC(0-t) [2, 15]: 1680 ng·h/mL
- Cmax [2, 15]: 544 ng/mL
- MRT last [2, 15]: 4.5 h
- Tmax ([2]; both sexes, Sprague-Dawley, SD rats, single PO 40 mg/kg, plasma, males and females, read-out: Tmax (time of maximal concentration) (converted)): 0.25 h
- Cmax [2, 16]: 623 ng/g
- MRT last [2, 16]: 6.4 h
- AUC(0-t) [2, 17]: 2670 ng·h/mL
- Cmax [2, 17]: 739 ng/mL
- MRT last [2, 17]: 4.8 h
- Kp ([2]; female, Sprague-Dawley, CSF/plasma, SD rats, 40 mg/kg PO, CSF/plasma, female): 0.0338
- Kp ([2]; female, Sprague-Dawley, brain/plasma, SD rats, 40 mg/kg PO, brain/plasma, female): 0.928
- AUC(0-t) ([2]; female, Sprague-Dawley, SD rats, single PO 40 mg/kg, brain, females): 3390 ng·h/mL
- crossing of the blood-brain barrier ([2]; general statement): can cross the blood-brain barrier
- Kp ([2]; male, Sprague-Dawley, CSF/plasma, SD rats, 40 mg/kg PO, CSF/plasma, male): 0.011
- Kp ([2]; male, Sprague-Dawley, brain/plasma, SD rats, 40 mg/kg PO, brain/plasma, male): 1.31
- AUC(0-t) ([2]; male, Sprague-Dawley, SD rats, single PO 40 mg/kg, brain, males): 2200 ng·h/mL
- Tmax ([2]; SD rats, single PO 40 mg/kg, brain, male, read-out: Tmax): 0.25 h
- Tmax ([2]; SD rats, single PO 40 mg/kg, plasma, female, read-out: Tmax): 0.25 h
- Tmax ([2]; SD rats, single PO 40 mg/kg, plasma, male, read-out: Tmax): 0.25 h
- IC50 (SHP2 E76K): > 1000 nM
- fraction unbound (in vitro [3]): < 0.24
- Relative Abundance (UV Peak Area % Total) (Metabolite ID in plasma [4]): 97.20%
- IC50 (LSD1): > 1000 nM
- fraction unbound (in vitro [5]): < 0.07
- IC50 (WDR5): 0.683 nM
- IC50 (HDAC1): > 1000 nM
- IC50 (TCPTP): > 1000 nM
- IC50 (WIP 1): > 1000 nM
- fraction unbound (in vitro [6]): < 0.07
- IC50 (POLQ ATPase): > 1000 nM
- Relative Abundance (UV Peak Area % Total) (Metabolite ID in plasma [7]): 92.78%
- IC50 (PRMT5): > 1000 nM
- fraction unbound (in vitro [8]): < 0.07
- Relative Abundance (UV Peak Area % Total) (Metabolite ID in plasma [9]): 97.58%
